{"source": "patent US6861441B1", "about": "“Use of EP4 receptor ligands in the treatment of neuropathic pain and colon cancer” (SmithKline Beecham Corporation, priority 1999, dated 2005)", "key": {"human EP4 receptors": {"biological_target": "T1, human EP4 receptors (Homo sapiens, UniProt P35408)", "T1 construct": "expressed in transfected cells; host or cells: Chinese Hamster Ovary (CHO) cells infected with Semliki Forest Virus carrying an SFV-1 RNA construct with the hEP4 receptor; membranes were prepared from these cells", "T1 sequence (P35408 whole entry)": "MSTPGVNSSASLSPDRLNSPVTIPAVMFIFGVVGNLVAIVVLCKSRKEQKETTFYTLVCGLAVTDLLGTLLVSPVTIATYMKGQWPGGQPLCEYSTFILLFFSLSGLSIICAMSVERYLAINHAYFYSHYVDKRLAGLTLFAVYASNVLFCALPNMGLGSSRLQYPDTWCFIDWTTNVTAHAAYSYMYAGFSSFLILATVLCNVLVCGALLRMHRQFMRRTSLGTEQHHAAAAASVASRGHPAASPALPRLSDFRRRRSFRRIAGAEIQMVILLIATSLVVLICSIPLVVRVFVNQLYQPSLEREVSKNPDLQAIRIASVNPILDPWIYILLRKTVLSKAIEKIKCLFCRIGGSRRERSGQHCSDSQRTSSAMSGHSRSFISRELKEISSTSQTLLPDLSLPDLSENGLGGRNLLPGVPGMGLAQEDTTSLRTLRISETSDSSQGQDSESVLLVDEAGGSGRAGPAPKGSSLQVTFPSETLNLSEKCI", "assay": "Human EP4 Scintillation Proximity Assay (SPA), [3H]-prostaglandin E2 competition binding", "method": "Quantification of radioligand binding by scintillation proximity assay (SPA) is a long-established principle. Briefly, the affinity of compounds for a receptor is assessed by the specific competition between known quantities of radiolabelled ligand and compound for that receptor. Increasing concentrations of compound reduce the amount of radiolabel that binds to the receptor. This gives rise to a diminishing scintillation signal from SPA beads coated with membranes that bear the receptor. The signal may be detected with a suitable scintillation counter and the data generated may be analysed with suitable curve-fitting software.\nThe human EP4 SPA assay (hereafter referred to as ‘the assay’) utilises membranes prepared from Chinese Hamster Ovary (CHO cells) infected with Semliki Forest Virus (SFV). […]\nFor assay, membranes expressing human EP4 receptors are diluted in a pH-buffered medium and mixed with SPA beads coated with a suitable substance to facilitate the adhesion of membranes to the beads. […] Nonspecific binding (nsb) may be determined by competition between the radiolabelled ligand and a saturating concentration of unlabelled ligand. In order to quantify the affinity of EP4 receptor ligands, compounds are diluted in a stepwise manner across the wells of a 96-well plate. […] The affinity (pKi) of the compound may be calculated from the IC50 by application of the Cheng-Prusoff correction. […]"}, "[1]": {"test_system": "CCI-induced neuropathic hypersensitivity in male random hooded rats", "assay": "Chronic constriction injury (CCI) model of neuropathic hypersensitivity, paw withdrawal threshold", "type": "in vivo, rat", "details": "10 mgkg-1 b.i.d. PO", "description": "Under isoflurane anaesthesia, the common left sciatic nerve was exposed at mid thigh level and four loose ligatures of Chromic gut tied around it. The wound was then closed and secured using suture clips. The surgical procedure was identical for the sham operated animals except the sciatic nerve was not ligated. The rats were allowed a period of seven days to recover from the surgery before behavioural testing began."}}}
{"smiles": "CCOc1c2c(c(OCC)c3ccccc13)C(=O)N(c1ccc(CC(=O)O)cc1)C2", "note": "[IF, [4-(4,9-diethoxy-1-oxo-1,3-dihydro-2H-benzo[f]isoindol-2-yl)phenyl]acetic Acid]", "values": [{"measurement": "Ki", "setting": "human EP4 receptors", "result": 100, "unit": "nM"}, {"measurement": "time of chronic dosing until reversal became apparent", "setting": "[1]; days 20-33 postoperative", "result": 3, "unit": "days"}, {"measurement": "time of chronic dosing until reversal was maximal", "setting": "[1]; days 20-33 postoperative", "result": 1, "unit": "week"}, {"measurement": "effect on CCI-induced decrease in paw withdrawal threshold", "setting": "[1]; dosed chronically for 14 days (days 20-33 postoperative)", "result": "reversal of the CCI-induced decrease in paw withdrawal threshold"}, {"measurement": "paw withdrawal threshold following cessation of the drug treatment", "setting": "[1]; after the 14-day dosing period", "result": "returned to that of the vehicle treated CCI-operated animals"}]}
